The results in this text go back to article PMC12300679, “Taurine-Based Hybrid Drugs as Potential Anticancer Therapeutic Agents: In Vitro, In Vivo Evaluations” (Pharmaceuticals, 2025).

Each structure is given as a SMILES string.

Data set [1] deals with HL-60 human promyelocytic leukemia cells. In words: MTT cytotoxicity assay, HL-60. It counts as cell-based. As to conditions: for IC50: Homo sapiens, HL-60, MTT, tested at 1–200 µM, three independent experiments. Background: Tetrazolium assays rely on reduction of a dye to a coloured formazan, in cell work by metabolically active cells.
Data set [2] concerns WI38 human fibroblast cell line. In words: MTT cytotoxicity assay, normal WI38 cells. It counts as cell-based. As to conditions: WI-38, tested at 1–200 µM, three independent experiments.
Data set [3] relates to RPMI 1788 human healthy donor peripheral blood leukocytes. In words: MTT cytotoxicity assay, normal RPMI 1788 cells. It counts as cell-based. As to conditions: tested at 1–200 µM, three independent experiments, read-out: IC50 RPMI 1788 (normal cell line).
Data set [4] relates to HuTu 80 human duodenal adenocarcinoma cells. In words: MTT cytotoxicity assay, HuTu 80. As to conditions: for IC50: Homo sapiens, HuTu80, MTT, tested at 1–200 µM, three independent experiments; for SI (selectivity index) HuTu 80: HuTu 80 versus normal WI38 cells. It counts as cell-based.
A further data set relates to lymphatic leukemia P388. In words: Antitumor activity, syngeneic lymphatic leukemia P388 in BDF1 mice. It counts as in vivo, mouse. As to conditions: for ILS / MST ± SD: i.p. days 1, 5, 9; for antileukemia / antitumor effect (in words): doses under study, i.p. The protocol:
At the next stage, we evaluated them in vivo using syngeneic mouse leukosis P388, which plays an important role in the screening of potential antitumor agents. The antitumor effect of the synthesized compounds was evaluated according to the increase in the average lifespan (ILS, %) of tumor-bearing animals. Due to the fact that physiologically relevant solvent, such as water or physiological solution [49], can be used as a solvent for parenteral administration of substances, we chose only water-soluble compounds 4o–r for the in vivo study.
As model tumors for the determination of antitumor activity of phosphorus-containing derivatives of pyrrolidine, the strain of lymphatic leukemia P388 was chosen. Lymphatic leukemia P388 was transplanted into hybrid mice of the BDF1 line intraperitoneally in accordance with the standard procedure. The inoculum contained 10^6 tumor cells in isotonic solution of NaCl. […] In each experiment, the control group was represented by the cohort of animals with tumors not treated with the compounds. Each group consisted of six mice. The animals were inspected daily over at least 60 days. The effectiveness of therapy was evaluated by the number of surviving animals, as well as by the increase in the average lifespan (ILS%), which was evaluated as the percentage of the mean survival time (MST) of the treated group (t) as compared to the control group (c): […].

Data set [5] has as its system M-HeLa human cervix carcinoma cells. Kind of data set: MTT cytotoxicity assay, M-HeLa. It counts as cell-based. As to conditions: for IC50: Homo sapiens, M-HeLa, tested at 1–200 µM, three independent experiments; for SI (selectivity index) M-HeLa: M-HeLa versus normal WI38 cells.
The nature of data set [6]: Acute in vivo toxicity, single intraperitoneal administration. As to conditions: mouse, ip, BDF1 mice, Behrens method, 14 d observation, read-out: half-lethal toxic dose (LD50). The protocol:
Firstly, acute in vivo toxicity was determined in order to calculate doses for the determination of the potential antileukemia activity. An acute toxicity study was carried out on the mice of the BDF1 line weighing from 20 to 24 g. In the experiment, clinically healthy animals were used, which were treated under the same conditions. To evaluate LD50, the toxicity gain curve was plotted against increasing doses (the Behrens method) (Figure 3).
Acute toxicity was evaluated using mice of the BDF1 line weighing from 20 to 24 g. In the experiment, clinically healthy animals treated under the same conditions were used. A total of 4–6 animals were used for each dose. All experiments on animals were carried out according to the Nursery and Vivarium, Russian Academy of Sciences Federal Research Center of Problems of Chemical Physics and Medicinal Chemistry (FRC PCPMC RAS) and in accordance with the rules established by the Commission on Bioethics of the FRC PCPMC RAS. One day after administration of the specimen, the animals were continuously treated for 4 h. Then, death of animals and clinical pattern of intoxication were evaluated once a day for 14 d. The test compounds were added intraperitoneally once. The individual volume of each animal was calculated from the mass of the body and dose of the test compound.
The lethal dose (LD100) for all animals and the maximum tolerable dose (MTD) values were also evaluated. Results of the studies are given in the form of tables and graphs.

Setting [7] is: dose 10 (table prints no unit; b71 mg/kg).
Where [8] appears, read: dose 15 (table prints no unit; b71 mg/kg).
Where [9] appears, read: dose 22 (table prints no unit; b71 mg/kg).
The mark [10] stands for this setting: dose 31 (table prints no unit; b71 mg/kg).
[11] abbreviates: dose 47 (table prints no unit; b71 mg/kg).
Where [12] appears, read: dose 12 (table prints no unit; b71 mg/kg).
[13] abbreviates: dose 17 (table prints no unit; b71 mg/kg).
Setting [14] is: dose 27 (table prints no unit; b71 mg/kg).
Where [15] appears, read: dose 38 (table prints no unit; b71 mg/kg).
Where [16] appears, read: dose 57 (table prints no unit; b71 mg/kg).
[17] abbreviates: dose 16 (table prints no unit; b71 mg/kg).
Where [18] appears, read: dose 34 (table prints no unit; b71 mg/kg).
Setting [19] is: dose 48 (table prints no unit; b71 mg/kg).
Setting [20] is: dose 72 (table prints no unit; b71 mg/kg).

As to `Cl.O=P(c1ccccc1)(c1ccccc1)C1CCCN1S(=O)(=O)CCN1CCCCC1` (stereo not drawn) [Compound 4r, 1-(2-((2-(Diphenylphosphoryl)pyrrolidin-1-yl)sulfonyl)ethyl)piperidin-1-ium chloride], the IC50 (commonly the midpoint of a concentration-inhibition curve) in data set [1] was above 100 µM; in data set [2], above 100 µM; in data set [3], above 100 µM; in data set [4], 97.3 ± 8.2 µM; in data set [5] (MTT) it was 96 ± 8.6 µM. For the same compound, the “SI (selectivity index) HuTu 80” value in data set [4] is listed as above 1. Further, the ILS is recorded as −9% in the data set on lymphatic leukemia P388 (setting [7]); −2% in the data set with lymphatic leukemia P388 (setting [8]); 4% in the data set with lymphatic leukemia P388 (setting [9]); 0% in the data set on lymphatic leukemia P388 (setting [10]); −1% with lymphatic leukemia P388 (setting [11]). Also, the “MST ± SD” value in the data set with lymphatic leukemia P388 (setting [7]) amounted to 9.8 ± 0.2 days; in the data set on lymphatic leukemia P388 (setting [8]), 10.5 ± 0.8 days; in the data set on lymphatic leukemia P388 (setting [9]), 11.2 ± 0.8 days; in the data set with lymphatic leukemia P388 (setting [10]), 10.8 ± 0.7 days; in the data set with lymphatic leukemia P388 (setting [11]), 10.7 ± 0.8 days. In addition, the “antileukemia / antitumor effect (in words)” value in the data set with lymphatic leukemia P388 is on record as “did not display antitumor effect”. For the same compound, the “SI (selectivity index) M-HeLa” value in data set [5] is recorded as above 1. Moreover, the median lethal dose (LD50) (commonly the dose at which mortality reaches 50%) at 14 d in data set [6] is 170 ± 12.1 mg/kg.

For the compound `Cl.O=P(c1ccccc1)(c1ccccc1)C1CCCN1S(=O)(=O)CCN1CCCC1` (stereo not drawn) [Compound 4q, 1-(2-((2-(Diphenylphosphoryl)pyrrolidin-1-yl)sulfonyl)ethyl)pyrrolidin-1-ium chloride], the IC50 in data set [1], in data set [2], in data set [3], in data set [4] and in data set [5] (MTT) was above 100 µM each time. For the same compound, the ILS with lymphatic leukemia P388 (setting [12]) was −9%; with lymphatic leukemia P388 (setting [13]), 13%; with lymphatic leukemia P388 (setting [14]), 33%; in the data set on lymphatic leukemia P388 (setting [15]), 69%; in the data set with lymphatic leukemia P388 (setting [16]), 11%. For the same compound, the “MST ± SD” value in the data set with lymphatic leukemia P388 (setting [12]) was found to be 8.3 ± 0.6 days; in the data set on lymphatic leukemia P388 (setting [13]) it was 10.3 ± 0.9 days; with lymphatic leukemia P388 (setting [14]), 12.2 ± 1.7 days; with lymphatic leukemia P388 (setting [15]), 15.5 ± 3.9 days; in the data set with lymphatic leukemia P388 (setting [16]), 10.2 ± 0.2 days. Also, in the data set on lymphatic leukemia P388, the “antileukemia / antitumor effect (in words)” value is recorded as “exhibited antileukemia activity”. The LD50 at 14 d in data set [6] is 215 ± 16.7 mg/kg.

As to `CCCCN(CCCC)CCS(=O)(=O)N1CCCC1P(=O)(c1ccccc1)c1ccccc1.Cl` (stereo not drawn) [Compound 4p, N-Butyl-N-(2-((2-(diphenylphosphoryl)pyrrolidin-1-yl)sulfonyl)ethyl)butan-1-aminium chloride], the “SI (selectivity index) HL-60” value in data set [1] (HL-60 versus normal RPMI 1788 leukocytes) turned out to be 2.3. For the same compound, the 50% inhibitory concentration (IC50) in data set [1] stood at 76.7 ± 6.1 µM; in data set [2] it was 63.2 ± 5.7 µM; in data set [3], 176 ± 3.4 µM; in data set [4], 94.4 ± 8.7 µM; in data set [5] (MTT) it was 57 ± 4.6 µM. In data set [4], the “SI (selectivity index) HuTu 80” value is listed as “- ((-)—no selectivity)”. Moreover, the ILS is 100% with lymphatic leukemia P388 (setting [17]); 80% in the data set on lymphatic leukemia P388 (setting [9]); 75% in the data set with lymphatic leukemia P388 (setting [18]); 55% in the data set with lymphatic leukemia P388 (setting [19]); 42% in the data set with lymphatic leukemia P388 (setting [20]). Further, the “MST ± SD” value is 20 ± 3.1 days in the data set with lymphatic leukemia P388 (setting [17]); 18 ± 3.2 days with lymphatic leukemia P388 (setting [9]); 17.5 ± 2.7 days in the data set on lymphatic leukemia P388 (setting [18]); 15.5 ± 3.4 days in the data set on lymphatic leukemia P388 (setting [19]); 14.2 ± 2.4 days in the data set with lymphatic leukemia P388 (setting [20]). In the data set with lymphatic leukemia P388, the “antileukemia / antitumor effect (in words)” value is recorded as “exhibited antileukemia activity”. Further, the “SI (selectivity index) M-HeLa” value in data set [5] was determined as 1.1. In data set [5] (MTT), the “cytotoxicity against M-HeLa (in words)” value is given as “moderate cytotoxicity”. Further, in data set [6], the LD50 at 14 d was 165 ± 18.2 mg/kg.
